Data from US11865108B2, “Nitrogen containing bicyclic compounds” (Wockhardt Limited, priority 2019, dated 2024).
Values after ≈ are worked out from the molar mass of the structure shown.

Experiments:
[1] = tested on: K. pneumoniae H 523; experiment: Agar dilution MIC, K. pneumoniae H 523; assay type: cell-based; details: Klebsiella pneumoniae, H523
Method: (§1) The biological activity of representative compounds according to the invention against various bacterial strains was investigated. In a typical study, overnight grown bacterial cultures were diluted appropriately and inoculated on the agar media containing doubling dilutions of the test compounds. Observations for growth or no growth was performed after 16-20 hours of incubation at 35±2° C. in the ambient air. The overall procedure was performed as per Clinical and Laboratory Standards Institute (CLSI) recommendations, (Clinical and Laboratory Standards Institute (CLSI), Performance Standards for Antimicrobial Susceptibility Testing, 20th Informational Supplement, M07-A9, Volume 32, No. 2, 2012). Molten Mueller Hinton Agar (MHA) (BD, USA) containing serial dilutions of each antibacterial agent were poured on to the plates and allowed to solidify. Appropriate suspensions from the freshly grown cultures were prepared in normal saline so that about 10^4 CFU/spot of the organism was delivered on to the drug containing agar plates using automated multipoint inoculator (Mast, UK). The plates were incubated in Biochemical oxygen demand (BOD) incubator at 37° C. for 18 hours and then examined for growth. […] The Table 2 depicts the antibacterial activity profile of compounds according to present invention against various multidrug resistant bacterial strains.

[2] = tested on: E. Coli 13353; experiment: Agar dilution MIC, E. Coli 13353; assay type: cell-based; details: Escherichia coli
Method: as §1

[3] = tested on: E. Coli M 138; experiment: Agar dilution MIC, E. Coli M 138; assay type: cell-based; details: Escherichia coli
Method: as §1

[4] = tested on: K. pneumoniae H 521; experiment: Agar dilution MIC, K. pneumoniae H 521; assay type: cell-based; details: Klebsiella pneumoniae, H521
Method: as §1

[5] = tested on: K. pneumoniae B 88; experiment: MIC alone and in combination, K. pneumoniae B 88; assay type: cell-based; details: Klebsiella pneumoniae, B88, 18 h, beta lactamase NDM, ESBL, alone or in combination as labelled
Method: as §1
(§2) The antibacterial activity of compounds according to the invention was also investigated in combination with several antibacterial agents. For example, antibacterial activity of the representative compounds of Formula (I) (Example 1 and Example 2) in combination with Ceftazidime and Cefixime are summarized in Table 3.

[6] = tested on: E. Coli M 50; experiment: Agar dilution MIC, E. Coli M 50; assay type: cell-based; details: Escherichia coli
Method: as §1

[7] = tested on: K. pneumoniae NCTC 13443; experiment: MIC alone and in combination, K. pneumoniae NCTC 13443; assay type: cell-based; details: Klebsiella pneumoniae, NCTC13443, 18 h, beta lactamase NDM, ESBL, alone or in combination as labelled
Method: as §1, §2

[8] = tested on: Multi Drug Resistant (MDR) Gram negative strains; experiment: Antibacterial activity alone and in combination, summary of Table 3; assay type: cell-based, K. pneumoniae; details: for antibacterial activity when used alone: strains of Table 3
Method: as §1, §2

[9] = tested on: E. Coli M 36; experiment: Agar dilution MIC, E. Coli M 36; assay type: cell-based; details: Escherichia coli
Method: as §1

[10] = tested on: KP ATCC 700603; experiment: Agar dilution MIC, KP ATCC 700603; assay type: cell-based, K. pneumoniae; details: Klebsiella pneumoniae, ATCC700603
Method: as §1

[11] = tested on: E. Coli 13352; experiment: Agar dilution MIC, E. Coli 13352; assay type: cell-based; details: Escherichia coli
Method: as §1

[12] = tested on: K. pneumoniae S 465; experiment: MIC alone and in combination, K. pneumoniae S 465; assay type: cell-based; details: Klebsiella pneumoniae, S465, 18 h, beta lactamase OXA-181, ESBL, alone or in combination as labelled
Method: as §1, §2

[13] = tested on: K. pneumoniae NCTC 13439; experiment: MIC alone and in combination, K. pneumoniae NCTC 13439; assay type: cell-based; details: Klebsiella pneumoniae, NCTC13439, 18 h, beta lactamase VIM-1, alone or in combination as labelled
Method: as §1, §2

[14] = tested on: E. Coli M 49; experiment: Agar dilution MIC, E. Coli M 49; assay type: cell-based; details: Escherichia coli
Method: as §1

[15] = tested on: E. Coli 7 MP; experiment: Agar dilution MIC, E. Coli 7 MP; assay type: cell-based; details: Escherichia coli
Method: as §1

[16] = tested on: K. pneumoniae H 525; experiment: Agar dilution MIC, K. pneumoniae H 525; assay type: cell-based; details: Klebsiella pneumoniae, H525
Method: as §1

[17] = tested on: E. Coli S 18; experiment: Agar dilution MIC, E. Coli S 18; assay type: cell-based; details: Escherichia coli
Method: as §1

[18] = tested on: K. pneumoniae H 522; experiment: Agar dilution MIC, K. pneumoniae H 522; assay type: cell-based; details: Klebsiella pneumoniae, H522
Method: as §1

[19] = tested on: K. pneumoniae B 77; experiment: MIC alone and in combination, K. pneumoniae B 77; assay type: cell-based; details: Klebsiella pneumoniae, B77, 18 h, beta lactamase NDM, ESBL, alone or in combination as labelled
Method: as §1, §2

[20] = tested on: E. Coli 13351; experiment: Agar dilution MIC, E. Coli 13351; assay type: cell-based; details: Escherichia coli
Method: as §1

C[C@@H]1CN[C@H](CONC(=O)[C@@H]2CC[C@@H]3CN2C(=O)N3OS(=O)(=O)O)C1 [Example 2, (2S,5R)—N-{[(2S,4S)-4-Methyl-pyrrolidin-2-yl]methyloxy}-7-oxo-6-(sulfooxy)-1,6-diazabicyclo[3.2.1]octane-2-carboxamide]
MIC [1]: 1 µg/mL (≈ 2.64 µM) | MIC [2]: 0.5 µg/mL (≈ 1.32 µM) | MIC [3]: 1 µg/mL (≈ 2.64 µM) | MIC [4]: 2 µg/mL (≈ 5.29 µM) | MIC [5]: > 32 µg/mL | MIC [6]: 1 µg/mL (≈ 2.64 µM) | MIC [7]: > 32 µg/mL | antibacterial effect in combination ([8]; in combination with Ceftazidime and Cefixime, highly resistant bacterial strains): unusual and unexpected synergistic antibacterial effect | antibacterial activity when used alone [8]: did not exhibit significant antibacterial activity | MIC [9]: 0.5 µg/mL (≈ 1.32 µM) | MIC [10]: > 32 µg/mL | MIC [11]: 1 µg/mL (≈ 2.64 µM) | MIC [12]: > 32 µg/mL | MIC [13]: > 32 µg/mL | MIC [14]: 4 µg/mL (≈ 10.6 µM) | MIC [15]: 2 µg/mL (≈ 5.29 µM) | MIC [16]: 1 µg/mL (≈ 2.64 µM) | MIC [17]: 1 µg/mL (≈ 2.64 µM) | MIC [18]: 1 µg/mL (≈ 2.64 µM) | MIC [19]: > 32 µg/mL | MIC [20]: 1 µg/mL (≈ 2.64 µM)

C[C@H]1CN[C@@H](CONC(=O)[C@@H]2CC[C@@H]3CN2C(=O)N3OS(=O)(=O)O)C1 [Example 4, (2S,5R)—N-{[(2R,4R)-4-Methyl-pyrrolidin-2-yl]methyloxy}-7-oxo-6-(sulfooxy)-1,6-diazabicyclo[3.2.1]octane-2-carboxamide]
MIC [1]: 2 µg/mL (≈ 5.29 µM) | MIC [2]: 1 µg/mL (≈ 2.64 µM) | MIC [3]: 1 µg/mL (≈ 2.64 µM) | MIC [4]: 2 µg/mL (≈ 5.29 µM) | MIC [6]: 1 µg/mL (≈ 2.64 µM) | MIC [9]: 0.5 µg/mL (≈ 1.32 µM) | MIC [10]: > 32 µg/mL | MIC [11]: 2 µg/mL (≈ 5.29 µM) | MIC [14]: 4 µg/mL (≈ 10.6 µM) | MIC [15]: 2 µg/mL (≈ 5.29 µM) | MIC [16]: 2 µg/mL (≈ 5.29 µM) | MIC [17]: 1 µg/mL (≈ 2.64 µM) | MIC [18]: 2 µg/mL (≈ 5.29 µM) | MIC [20]: 1 µg/mL (≈ 2.64 µM)

O=C(NOC[C@@H]1C[C@@H](CF)CN1)[C@@H]1CC[C@@H]2CN1C(=O)N2OS(=O)(=O)O [Example 10]
MIC [1]: 2 µg/mL (≈ 5.05 µM) | MIC [2]: 1 µg/mL (≈ 2.52 µM) | MIC [3]: 1 µg/mL (≈ 2.52 µM) | MIC [4]: 2 µg/mL (≈ 5.05 µM) | MIC [6]: 1 µg/mL (≈ 2.52 µM) | MIC [9]: 1 µg/mL (≈ 2.52 µM) | MIC [10]: > 32 µg/mL | MIC [11]: 2 µg/mL (≈ 5.05 µM) | MIC [14]: 4 µg/mL (≈ 10.1 µM) | MIC [15]: 2 µg/mL (≈ 5.05 µM) | MIC [16]: 2 µg/mL (≈ 5.05 µM) | MIC [17]: 1 µg/mL (≈ 2.52 µM) | MIC [18]: 2 µg/mL (≈ 5.05 µM) | MIC [20]: 1 µg/mL (≈ 2.52 µM)

C=CC1=C(C(=O)O)N2C(=O)[C@@H](NC(=O)/C(=N\OCC(=O)O)c3csc(N)n3)[C@H]2SC1 [Cefixime, reference compound]
MIC [5]: > 32 µg/mL | MIC [7]: > 32 µg/mL | MIC [12]: > 32 µg/mL | MIC [13]: > 32 µg/mL | MIC [19]: > 32 µg/mL

NC[C@H]1CN[C@H](CONC(=O)[C@@H]2CC[C@@H]3CN2C(=O)N3OS(=O)(=O)O)C1 [Example 9]
MIC [1]: 2 µg/mL (≈ 5.08 µM) | MIC [2]: 2 µg/mL (≈ 5.08 µM) | MIC [3]: 4 µg/mL (≈ 10.2 µM) | MIC [4]: 4 µg/mL (≈ 10.2 µM) | MIC [6]: 2 µg/mL (≈ 5.08 µM) | MIC [9]: 2 µg/mL (≈ 5.08 µM) | MIC [10]: > 32 µg/mL | MIC [11]: 4 µg/mL (≈ 10.2 µM) | MIC [14]: 4 µg/mL (≈ 10.2 µM) | MIC [15]: 8 µg/mL (≈ 20.3 µM) | MIC [16]: 2 µg/mL (≈ 5.08 µM) | MIC [17]: 2 µg/mL (≈ 5.08 µM) | MIC [18]: 4 µg/mL (≈ 10.2 µM) | MIC [20]: 4 µg/mL (≈ 10.2 µM)

CC(C)(O/N=C(\C(=O)N[C@@H]1C(=O)N2C(C(=O)[O-])=C(C[n+]3ccccc3)CS[C@H]12)c1csc(N)n1)C(=O)O [Ceftazidime, reference compound]
MIC [5]: > 32 µg/mL | MIC [7]: > 32 µg/mL | antibacterial activity when used alone [8]: did not exhibit significant antibacterial activity | MIC [12]: > 32 µg/mL | MIC [13]: > 32 µg/mL | MIC [19]: > 32 µg/mL
